Results as given in patent US20240350430A1, “GROWTH INHIBITOR OF METASTATIC HUMAN PROSTATE CANCER CELLS” (Watanabe Oyster Laboratory Co., Ltd., priority 2021, published 2024).

Columns and labels:
Type in all cases: cell-based, human
[1] = tested on: PC-3 cells; assay: Colony formation of PC-3 cells; settings: DHMBA 1 or 10 μM, nine days
Method: (§1) The PC-3 and DU-145 cells (1×10^3/in 2 ml of a culture fluid per hole using a six-hole plate) were cultured in a DMEM culture fluid (containing 10% of FBS, 1% of P/S, and 1% of fungizone) containing the DHMBA (1 and 10 μM) under 5% of CO2, at 37° C., for nine days. After the culture, the culture fluid was removed, the cells were washed twice with PBS, 95% of methanol (0.5 ml) was added, and the cells were fixed for 20 minutes. After the fixation, each well of a culture dish was washed four times with PBS (1 ml), and after that 0.5% of crystal violet (0.5 ml) was added, and the product was left for two hours at room temperature for staining. After the stain solution was washed to be removed, drying was performed, and after that colonies containing 50 or more cells were counted by a microscope (Olympus MTV-3, Olympus Corporation, Tokyo, Japan).
FIG. 1(A) is a drawing in which the PC-3 cells (the cell number of 1×10^3/per well of a six-well plate) were cultured under 5% of CO2, at 37° C., for nine days in a DMEM culture fluid (containing 10% of FBS, 1% of P/S, and 1% of fungizone) containing the DHMBA (1 or 10 μM).
FIG. 1(B) is a diagram of counting the number of colonies.

[2] = tested on: PC-3 cells; assay: Cell growth of PC-3 cells (cell counting)
Method: The PC-3 and DU-145 cells (the cell number of 1×10^5/in 1 ml of a culture fluid per hole using a 24-hole plate) were cultured in a DMEM culture fluid (containing 10% of FBS, 1% of P/S, and 1% of fungizone) containing the DHMBA (1 and 10 μM) under 5% of CO2, at 37° C., for one, two, three, four, and six days. […] After the culture, 0.1 ml of 0.05% trypsin-EDTA solution obtained by dissolving the cells adhering to the bottom surface of the culture dish in PBS (Thermo Fisher Scientific, Waltham, MA, USA) not containing Ca^2+/Mg^2+ was added, incubation was performed at 37° C. for two minutes to release the adhering cells, and 0.9 ml of the DMEM culture fluid containing 10% of FBS and 1% of P/S was added to stop the reaction. The cell number in the cell suspension was counted by the method described in the item of “Measurement of Cell Number.”
After the culture of the cells, 0.1 ml of 0.05% trypsin-EDTA solution obtained by dissolving the cells adhering to the bottom surface of the culture dish in PBS (Thermo Fisher Scientific, Waltham, MA, USA) not containing Ca^2+/Mg^2+ was added, incubation was performed at 37° C. for two minutes to release the adhering cells, and 0.9 ml of the DMEM culture fluid containing 10% of FBS and 1% of P/S was added to stop the reaction. The visible cells were counted by the Olympus MTV-3 microscope using a hemocytometer (Sigma-Aldrich).
FIG. 1(C) is a diagram in which the PC-3 cells (1×10^5 cells/per well of a 24-well plate) were cultured under 5% of CO2, at 37° C., for one to six days in a DMEM culture fluid (containing 10% of FBS, 1% of P/S, and 1% of fungizone) containing the DHMBA (10 μM).
In FIGS. 1(D) and 1(E), the PC-3 cells (1×10^5 cells/per well of a 24-well plate) were cultured under 5% of CO2, at 37° C., for three (FIG. 1D) and six (FIG. 1E) days in a DMEM culture fluid (containing 10% of FBS, 1% of P/S, and 1% of fungizone) containing the DHMBA (0.01, 0.1, 1, 10, 100, and 1000 μM). After the culture, the cells adhered to the bottom surface of the dish were removed and counted. […] 1-way ANOVA, Tukey-Kramer post-test.
FIGS. 3(A) and 3(B) are diagrams in which the PC-3 cells (1×10^5 cells/ml/per well of a 24-well plate) were cultured under 5% of CO2, at 37° C., for three days in a DMEM culture fluid (containing 10% of FBS, 1% of P/S, and 1% of fungizone) containing the DHMBA (10 μM) containing cell cycle inhibitors, roscovitine (10 and 100 nM), butyrate (10 and 100 μM), and sulforaphane (1 and 10 nM).
After the culture, the cells adhered to the dish were removed and counted. […] 1-way ANOVA, Tukey-Kramer post-test.
In the drawing, the PC-3 cells (1×10^5/in 1 ml of a culture fluid per hole using a 24-hole plate) were cultured under 5% of CO2, at 37° C., for three days in a DMEM culture fluid (containing 10% of FBS, 1% of P/S, and 1% of fungizone) in the presence of the DHMBA (10 μM) and an aryl hydrocarbon receptor inhibitor CH223191 (1, 10, or 25 μM) to examine the action on cell growth.

[3] = tested on: DU-145 cells; assay: Colony formation of DU-145 cells; settings: DHMBA 1 or 10 μM, nine days
Method: as §1
FIG. 2(A) is a drawing in which the DU-145 cells (1×10^3 cells/per well of a six-well plate) were cultured under 5% of CO2, at 37° C., for nine days in a DMEM culture fluid (containing 10% of FBS, 1% of P/S, and 1% of fungizone) containing the DHMBA (1 or 10 μM).
FIG. 2(B) is a diagram of counting the number of colonies.

COc1c(O)cc(CO)cc1O [DHMBA, 3,5-dihydroxy-4-methoxybenzyl alcohol]
colony formation [1]: significantly inhibited
effect on cell growth at low concentration ([2]; DHMBA 0.01 μM): significant effect
cell growth inhibitory effect of DHMBA in the presence of CH223191 ([2]; DHMBA 10 μM with CH223191 1, 10, or 25 μM, three days): found not to be expressed
cell growth inhibitory effect of DHMBA in the presence of cell cycle inhibitors ([2]; DHMBA 10 μM with roscovitine, butyrate or sulforaphane, three days): not observed
cell growth inhibitory effect of DHMBA in the presence of signaling inhibitors ([2]; DHMBA 10 μM with wortmannin, PD98059 or staurosporine, three days): no significant cell growth inhibitory effect
cell growth ([2]; DHMBA 10 μM, one to six days): inhibited
colony formation [3]: significantly inhibited
